Data published in US20260232666A1, “COMPOSITIONS AND METHODS FOR INHIBITION OF RAS” (TheRas, Inc., priority 2023, published 2026).

Key:
[1] = target: T1, GppNHp-loaded KRAS4b (amino acids 1-169) G12C/C118S protein (Homo sapiens, UniProt P01116, C118S/G12C); assay: Covalent cysteine 12 modification by MALDI-TOF MS, GppNHp-loaded KRAS G12C; format: binding; conditions: 15 minutes reaction time point
T1 construct: KRAS4b (amino acids 1-169) G12C/C118S protein; made in house
Procedure: (§1) Biological Example 1: Covalent Cysteine 12 Modification Analysis Using Matrix Assisted Laser Desorption Ionization-Time of Flight Mass Spectrometry (MALDI-TOF MS)
(§2) MALDI-TOF MS analysis was performed using 1 μM protein (KRAS G12C), and 1:2.5 protein to compound ratio.
(§3) Reaction: 1 μM of GppNHp, GTP, or GDP-loaded KRAS4b (amino acids 1-169) G12C/C118S protein (produced in-house by Protein Expression Laboratory, FNLCR/Leidos Biomed) in 20 mM 4-(2-hydroxyethyl)-1-piperazineethanesulfonic acid (HEPES) buffer containing 150 mM NaCl, 1 mM MgCl2, pH 7.3 was prepared freshly before assay. Twelve-μL aliquots of protein were dispensed onto low volume 384-well plate, then 30 nL of tested compounds from 1 mM DMSO stocks were added to appropriate wells using ECHO 555 acoustic liquid handler (Labcyte Inc.). For each reaction/assay, three blanks were prepared by mixing 12 μL of protein solution with 30 nL DMSO. The contents of the wells were carefully mixed by aspiration, and then each plate was sealed with an adhesive cover, centrifuged at 2000 g for 1 minute, and kept in the dark at room temperature until 5 min, 15 min, 30 min, 2 h, or 6 h collections.
(§4) Target pretreatment: Before each assay MALDI target (Bruker MPT 384 ground steel BC) was pre-treated by pipetting on each spot 0.75 μL of saturated sinapinic acid in acetonitrile (ACN).
(§5) Sample preparation: At collection time point, 2 μL of reaction mixtures were pipetted out into 15 μL MALDI matrix solution (saturated solution of sinapinic acid in 1:1 ACN:water solution containing 0.75% trifluoroacetic acid (TFA)) deposited on 384 well polypropylene plate. Resulting solution was mixed by aspiration, centrifuged at 2000 g for 1 minute, then 1.5 μL aliquots were dispensed on pre-treated MALDI target using Beckman Coulter Biomek FXP 96/384-Span-8 Laboratory Automation Workstation. Finally, the MALDI target was dried under mild vacuum to produce spots with fine crystalline structure.
(§6) Measurements: MALDI-TOF measurements were performed on a Bruker Daltonics rapiflex Tissuetyper TOF-TOF mass spectrometer using linear mode and mass range from 18.6 to 21.6 kDa. Detector gain was set to 3.3×(483 V), sample rate to 5 GS/s, real time smoothing to medium (175 MHz), laser smart beam pattern was set to: “MS Thin Layer M5”, and the laser frequency was 10000 Hz. Spectra were automatically collected using custom AutoXecute method. Laser power was auto adjusted using fuzzy control. The peak selection range was set to be between 19000 and 21500 Da. Peak evaluation uses half width parameter set to be smaller than 40 Da for processed spectrograms (centroid peak detection; smoothed by SavitzkyGolay algorithm using 7 m/z width and 2 cycles; baseline was subtracted using median algorithm with flatness 1 and median level 0.01). Fuzzy control used Proteins/Oligonucleotides protocol with minimum half width 1/10 times above threshold. Up to 40000 satisfactory shots were collected in 10000 shot steps. Dynamic termination was implemented to finish data collection when peak signal/noise ratio was reaching value of 50.
(§7) Spectra processing: Spectra were smoothed by SavitzkyGolay algorithm using 7 m/z width and three cycles. Centroid peak detection algorithm was used with signal to noise threshold set to 6, relative intensity threshold 4%, peak width 10 m/z and median baseline subtraction using flatness of 1 and median level of 0.01. Peak intensity and area under the peak were evaluated and recorded for all peaks between 19,300 Da and 21,550 Da.
(§8) Calculation of percent modification: Percent modification was calculated as a ratio of peak height for protein modified by compound to sum of peak height of remaining protein plus peak height for protein modified by compound. If multiple modifications were observed each was calculated as a ratio of peak height for given modification versus sum of peak heights for all observed protein species. Data reported in Table 4 are from 15 minutes reaction time point. […]

[2] = target: T2, GTP-loaded KRAS4b (amino acids 1-169) G12C/C118S protein (Homo sapiens, UniProt P01116, C118S/G12C); assay: Covalent cysteine 12 modification by MALDI-TOF MS, GTP-loaded KRAS G12C; format: binding; conditions: 15 minutes reaction time point
T2 construct: KRAS4b (amino acids 1-169) G12C/C118S protein; made in house
Procedure: as §1, §2, §3, §4, §5, §6, §7, §8

[3] = target: T3, GDP-loaded KRAS4b (amino acids 1-169) G12C/C118S protein (Homo sapiens, UniProt P01116, C118S/G12C); assay: Covalent cysteine 12 modification by MALDI-TOF MS, GDP-loaded KRAS G12C; format: binding; conditions: 15 minutes reaction time point
T3 construct: KRAS4b (amino acids 1-169) G12C/C118S protein; made in house
Procedure: as §1, §2, §3, §4, §5, §6, §7, §8

pERK in NCI-H358 cells = assay: Cell-based pERK HTRF assay (pERK inhibition in H358 cells); conditions: Homo sapiens, NCI-H358, 0.5 h, 30 min incubation
Procedure: Biological Example 3: Cell-Based pERK HTRF Assay
pERK assays (Perkin Elmer) were used to determine the effectiveness of compounds of the present disclosure in disrupting KRAS G12C protein/effector signaling in cells.
On Day 1, cells (NCI-H358) were seeded into 96-well plates at 4×10^4 cells/well in complete growth media (RPMI, 10% FBS).
On Day 2, cells were treated with compounds at 0.25% DMSO. The source plate was created with compounds diluted in media at 5-fold the final assay concentration. The compounds were run in a 9-point concentration curve starting at 75 μM, with a 3-fold dilution between concentrations. 20 μL was transferred onto the cell plates (final volume in wells was 100 μL). Plates were harvested after 30 min incubation by aspirating media and adding kit-supplied 1× supplemented lysis buffer to all wells (75 μl per well). Plates were then placed on a plate shaker and incubated at 850 rpm for an additional 30 min.
Antibody mixture solution was prepared by diluting aliquoted d2 and Eu Cryptate antibodies 1:20 in kit supplied detection buffer, then mixed the diluted antibodies solutions (1:1 v:v). 4 μL of this solution was then added to a 384-well detection plate (Perkin Elmer; 6008230).
Samples were homogenized by pipetting up and down and then transferred (16 μL of cell lysates) from the 96-well cell culture plate to two wells of the HTRF 384-well detection plate containing the antibody solution. Plates were centrifuged (524 g for […]) and allowed to incubate between 4 and 24 h at room temperature. Maximum signal is reached after 4 h incubation time and remains stable over a period of 24 hours. Therefore, readings can be made between 4 and 24 h of incubation. Plates were centrifuged again (524 g for 1 min), and analyzed on the En Vision plate reader using the following settings: Excitation 320 nm, Bandwidth 75 nm; Emission 615 nm, Bandwidth 85 nm; Gain 100%; Flashes 100; Lag 60 μs.
The percent of modification of GppNHp, GTP, or GDP loaded KRAS G12C by MALDI-TOF MS, biochemical Raf1 RBD-KRAS G12C-GppNHp disruption assay IC50, and pERK inhibition IC50 of selected compounds described herein are shown in Table 4. For percent of modification at 15 minutes (MALDI-TOF MS) of GppNHp, GTP, or GDP loaded KRAS G12C: A: percent of modification ≥70%; B: 50≤percent of modification <70%; C: 10%≤percent of modification <50%; D: percent of modification <10%. […] For pERK inhibition in H358 cell assay: A: IC50≤0.1 μM; B: 0.1 μM<IC50≤1 μM; C: IC50>1 μM. Blanks in the table represent that compound was not tested in the indicated assay.

Structure (SMILES) | GppNHp-KRAS G12C percent of modification [1] | GTP-KRAS G12C percent of modification [2] | GDP-KRAS G12C percent of modification [3] | IC50 (pERK in NCI-H358 cells) [µM]
C[C@@H]1[C@H](N(C)c2nc(OC[C@@]34CCCN3C[C@H](F)C4)nc3c(F)c(-c4ccc(F)c5sc(N)c(C#N)c45)c(C(F)(F)F)cc23)CCN1C(=O)[C@H](F)Cl (atropisomer, axis not shown; (aS)) [Compound 182, 2-amino-4-((R)-4-(((2R,3R)-1-((R)-2-chloro-2-fluoroacetyl)-2-methylpyrrolidin-3-yl)(methyl)amino)-8-fluoro-2-(((2R,7aS)-2-fluorotetrahydro-1H-pyrrolizin-7a(5H)-yl)methoxy)-6-(trifluoromethyl)quinazolin-7-yl)-7-fluorobenzo[b]thiophene-3-carbonitrile] | D (percent of modification <10%) | D (percent of modification <10%) | D (percent of modification <10%) | 0.1 to 1
C[C@@H]1CN(c2nc(OC[C@@]34CCCN3C[C@H](F)C4)nc3c(F)c(-c4ccc(F)c5sc(N)c(C#N)c45)c(C(F)(F)F)cc23)[C@@H](C)CN1C(=O)[C@@H](F)Cl [Compound 180] | D (percent of modification <10%) | D (percent of modification <10%) | C (10%≤percent of modification <50%) | < 0.1
C[C@@H]1CN(c2nc(OC[C@@]34CCCN3C[C@H](F)C4)nc3c(F)c(-c4ccc(F)c5sc(N)c(C#N)c45)c(Cl)cc23)[C@@H](C)CN1C(=O)/C=C/c1nc(C(C)(F)F)no1 [Compound 191] | B (50≤percent of modification <70%) | B (50≤percent of modification <70%) | B (50≤percent of modification <70%) | 0.1 to 1
C[C@@H]1CN(c2nc(OC[C@@]34CCCN3C[C@H](F)C4)nc3c(F)c(-c4ccc(F)c5sc(N)c(C#N)c45)c(C(F)(F)F)cc23)[C@@H](C)CN1C(=O)[C@H](F)Cl [Compound 181] | D (percent of modification <10%) | D (percent of modification <10%) | D (percent of modification <10%) | 0.1 to 1
CO[C@@H]1C[C@@H](COc2nc(N(C)[C@@H]3CCN(C(=O)/C=C/c4nc(C(C)(F)F)no4)[C@@H]3C)c3cc(C(F)(F)F)c(-c4ccc(F)c5sc(N)c(C#N)c45)c(F)c3n2)N(C)C1 [Compound 189] | B (50≤percent of modification <70%) | C (10%≤percent of modification <50%) | B (50≤percent of modification <70%) | < 0.1
C=CC(=O)N1CC[C@@H](N(C)c2nc(OC[C@@H]3CC(=C(F)F)CN3C)nc3c(F)c(-c4ccc(F)c5sc(N)c(C#N)c45)c(C(F)(F)F)cc23)[C@H]1C [Compound 205] | B (50≤percent of modification <70%) | C (10%≤percent of modification <50%) | C (10%≤percent of modification <50%) | < 0.1

More lines, now with the values ahead:

GppNHp-KRAS G12C percent of modification [1] | GTP-KRAS G12C percent of modification [2] | GDP-KRAS G12C percent of modification [3] | IC50 (pERK in NCI-H358 cells) [µM] | Structure (SMILES)
A (percent of modification ≥70%) | A (percent of modification ≥70%) | A (percent of modification ≥70%) | < 0.1 | C=CC(=O)N1CC[C@@H](N(C)c2nc(O[C@@H](C)[C@@H]3[C@@H](OC)CCN3C)nc3c(F)c(-c4ccc(F)c5sc(N)c(C#N)c45)c(C(F)(F)F)cc23)[C@H]1C [Compound 193]
B (50≤percent of modification <70%) | C (10%≤percent of modification <50%) | B (50≤percent of modification <70%) | < 0.1 | C=CC(=O)N1CC[C@@H](N(C)c2nc(O[C@@H](C)[C@@H]3C(=C(F)F)CCN3C)nc3c(F)c(-c4ccc(F)c5sc(N)c(C#N)c45)c(C(F)(F)F)cc23)[C@H]1C [Compound 207]
C (10%≤percent of modification <50%) | C (10%≤percent of modification <50%) | C (10%≤percent of modification <50%) | < 0.1 | C=CC(=O)N1CC[C@@H](N(C)c2nc(OC[C@@H]3C(=C(F)F)CCN3C)nc3c(F)c(-c4ccc(F)c5sc(N)c(C#N)c45)c(C(F)(F)F)cc23)[C@H]1C [Compound 199]
A (percent of modification ≥70%) | A (percent of modification ≥70%) | A (percent of modification ≥70%) | < 0.1 | C=CC(=O)N1CC[C@@H](N(C)c2nc(O[C@@H](C)[C@@H]3C(=C)CCN3C)nc3c(F)c(-c4ccc(F)c5sc(N)c(C#N)c45)c(C(F)(F)F)cc23)[C@H]1C [Compound 203]
C (10%≤percent of modification <50%) | C (10%≤percent of modification <50%) | C (10%≤percent of modification <50%) | 0.1 to 1 | C=CC(=O)N1CC[C@@H](N(C)c2nc(O[C@@H](C)[C@@H]3CC(=C(F)F)CN3C)nc3c(F)c(-c4ccc(F)c5sc(N)c(C#N)c45)c(C(F)(F)F)cc23)[C@H]1C [Compound 204]
